Data taken from patent US20250304567A1, “PYRROLIDIONE DERIVATIVES AS INHIBITORS OF NF KAPPA B INDUCING KINASE” (priority 2022, published 2025).
Read-outs that look alike come from different tables or passages of the source.

Legend:
[1] = tested on: p-IKKa levels in L363 (NIK translocated multiple myeloma) cells; test: Effect of compounds on p-IKKa levels in L363 (NIK translocated multiple myeloma) cells (AlphaLISA SureFire Ultra p-IKKa Ser176/180); type: cell-based, human
Experimental: Assay 2: Effect of Compounds on p-IKKa Levels in L363 (NIK Translocated Multiple Myeloma) Cells
All compounds tested were dissolved and serially diluted in DMSO, 1:3 dilution for 11 points in an Echo compatible plate. 100% DMSO was added to columns 12 and 24 of the plate to serve as high and low signal controls. This compound plate was used to spot 20 nL of compound or DMSO into a Greiner 384 well TC plate (781080). The final DMSO concentration was 0.3% (v/v) in cell assays. Human L363 cells (ATCC) were cultured in RPM11640 medium supplemented with GlutaMax, non-essential amino acids, sodium pyruvate and 10% fetal bovine serum. Cells were routinely maintained at densities of 0.2×10^6 cells per ml-2×10^6 cells per mL at 37° C. in a humidified 5% CO2 atmosphere incubator. Cells were passaged twice a week splitting back to obtain the low density. The day before the assay, cells were washed twice in HBSS (Hank's Balanced Salt Solution), resuspended in Dulbecco's Modified Eagle Medium (DMEM)+0.5% IgG and protease free BSA (Jackson Immuno Research Laboratories), +/−250 ng/ml recombinant human B-cell activating factor (BAFF/BLyS/TNFSF13B) and incubated overnight at 37° C. in a humidified 5% CO2 atmosphere (bulk stimulation with or without BAFF). The next day, the cell concentration was adjusted to 1×10^7 cells/ml in DMEM+/−250 ng/ml BAFF+/−10 μM MG132 and plated at 10 μl/well into compound or DMSO spotted 384 well TC plates. Seeded cells were incubated at 37° C. in a humidified 5% CO2 atmosphere for 6 h. After 6 h, the plates were removed from the incubator and cell lysis was achieved by the addition of 2.5 μl 5× lysis buffer containing protease and phosphatase inhibitors, followed by shaking on a plate shaker at room temperature for 15 min. At the end of this incubation, lysed cells were sequentially treated and incubated with acceptor and donor bead mixes according to the manufacturer's protocol for a 1 plate/2-incubation suspension cell assay (AlphaLISA SureFire Ultra p-IKKa (Ser 176/180) Assay Kit (Perkin Elmer). Plates were read using an EnVision Multilabel Plate Reader (Perkin Elmer). Within an experiment, a concentration response curve for each compound was run in duplicate. The signal obtained in the test wells was normalized using high signal (BAFF stimulated cells, DMSO, MG132) and low signal (unstimulated cells, DMSO) controls. To determine the IC50, a sigmoidal curve was fitted to the plot of % inhibition versus Log10 compound concentration.

[2] = target: Recombinant Human NF-kappaB-Inducing Kinase (NIK/MAP3K14) (Homo sapiens, UniProt Q99558); test: Inhibition of auto-phosphorylation of recombinant human NIK/MAP3K14 activity (AlphaScreen); type: biochemical; details: 5 μM ATP, 1 nM NIK, average if tested more than once
Experimental: Assay 1: Inhibition of Auto-Phosphorylation of Recombinant Human NF-kappaB-Inducing Kinase (NIK/MAP3K14) Activity (AlphaScreen™)
NIK/MAP3K14 auto-phosphorylation activity was measured using the AlphaScreen™ (αscreen) format (Perkin Elmer). All compounds tested were dissolved in dimethyl sulfoxide (DMSO) and further dilutions were made in assay buffer. The final DMSO concentration was 0.7% (v/v) in assays. The assay buffer was 50 mM Tris pH 7.5 containing 1 mM EGTA (ethylene glycol tetraacetic acid), 1 mM DTT (dithiothreitol), 0.1 mM Na3VO4, 5 mM MgCl2, and 0.01% Tween®20. The assays were carried out in 384 well Proxiplates (Perkin Elmer). The incubations consisted of the compound, 5 μM Adenosine-5′-triphosphate (ATP), and 1 nM NIK/MAP3K14. Incubations were initiated by the addition of GST-tagged NIK/MAP3K14 enzyme, carried out for 2 h at 25° C. and terminated by addition of stop buffer containing anti-phospho-IKK Ser176/180 antibody. Protein A Acceptor and Glutathione-Donor beads were added before reading using an EnVision Multilabel Plate Reader (Perkin Elmer). The signal obtained in the wells was normalized using high (full enzyme activity, 0.7% DMSO) and low controls (no enzyme activity, 0.7% DMSO, no ATP). IC50's were determined by fitting a sigmoidal curve to % inhibition of control versus Log10 compound concentration.

[3] = Homo sapiens, L-363, p-IKKa levels in L363 cells, average if tested more than once, read-out: Assay 2 IC50
[4] = p-IKKa levels in L363 cells, average if tested more than once, read-out: Assay 2 IC50

Sequence of Recombinant Human NF-kappaB-Inducing Kinase (NIK/MAP3K14) (Q99558 whole entry): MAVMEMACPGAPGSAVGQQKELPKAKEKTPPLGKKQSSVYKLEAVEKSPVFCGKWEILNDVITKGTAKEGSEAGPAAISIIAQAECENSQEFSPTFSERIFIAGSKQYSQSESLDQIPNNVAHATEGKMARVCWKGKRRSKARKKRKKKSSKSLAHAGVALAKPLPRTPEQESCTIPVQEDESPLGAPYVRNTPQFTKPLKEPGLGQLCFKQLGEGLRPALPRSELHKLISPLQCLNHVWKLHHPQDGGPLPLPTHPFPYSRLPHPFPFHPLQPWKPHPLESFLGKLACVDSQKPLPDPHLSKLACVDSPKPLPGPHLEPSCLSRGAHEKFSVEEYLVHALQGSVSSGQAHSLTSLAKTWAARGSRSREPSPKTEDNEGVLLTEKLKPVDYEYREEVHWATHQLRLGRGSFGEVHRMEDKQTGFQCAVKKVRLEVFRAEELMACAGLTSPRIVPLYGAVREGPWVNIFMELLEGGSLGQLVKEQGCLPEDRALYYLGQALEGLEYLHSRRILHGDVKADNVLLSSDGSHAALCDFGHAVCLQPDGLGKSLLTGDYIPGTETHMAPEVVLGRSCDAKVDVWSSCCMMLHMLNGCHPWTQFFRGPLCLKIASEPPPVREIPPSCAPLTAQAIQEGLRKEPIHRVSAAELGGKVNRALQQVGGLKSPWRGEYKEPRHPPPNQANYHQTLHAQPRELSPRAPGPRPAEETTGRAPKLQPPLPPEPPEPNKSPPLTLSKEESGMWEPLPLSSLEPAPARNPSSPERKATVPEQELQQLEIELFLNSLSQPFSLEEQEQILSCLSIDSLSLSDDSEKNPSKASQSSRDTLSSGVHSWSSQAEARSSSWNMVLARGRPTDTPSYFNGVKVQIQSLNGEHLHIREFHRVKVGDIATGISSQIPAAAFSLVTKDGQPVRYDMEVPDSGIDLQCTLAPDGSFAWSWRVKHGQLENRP

CN1CC[C@@](O)(c2cccc(-c3nc(-c4ccnc(Nc5cnc6ccc(F)cn56)n4)cs3)c2)C1=O [Example 279, (R)-3-(3-(4-(2-((6-Fluoroimidazo[1,2-a]pyridin-3-yl)amino)pyrimidin-4-yl)thiazol-2-yl)phenyl)-3-hydroxy-1-methylpyrrolidin-2-one] gave an IC50 [1, 3] of over 501 nM and an IC50 [2] of over 501 nM.
CN1CC[C@@](O)(c2cccc(-c3nc(-c4ccnc(Nc5cccnc5)n4)cs3)c2)C1=O [Example 68, (R)-3-hydroxy-1-methyl-3-(3-(4-(2-(pyridin-3-ylamino)pyrimidin-4-yl)thiazol-2-yl)phenyl)pyrrolidin-2-one] was tested, and the IC50 [1, 3] was over 501 nM and the IC50 [2] was over 501 nM.
Work on CN1CC[C@@](O)(c2cccc(-c3csc(-c4ccnc(Nc5cnn(C(CO)CO)c5)n4)n3)c2)C1=O [Example 44, (R)-3-(3-(2-(2-((1-(1,3-dihydroxypropan-2-yl)-1H-pyrazol-4-yl)amino)pyrimidin-4-yl)thiazol-4-yl)phenyl)-3-hydroxy-1-methylpyrrolidin-2-one] yielded an IC50 [1, 3] of over 501 nM and an IC50 [2] of under 100 nM.
CN1CC[C@@](O)(c2cccc(-c3nc(-c4ccnc(Nc5cc(C(F)(F)F)n(C)n5)n4)cs3)c2)C1=O [Example 256, (R)-3-Hydroxy-1-methyl-3-(3-(4-(2-((1-methyl-5-(trifluoromethyl)-1H-pyrazol-3-yl)amino)pyrimidin-4-yl)thiazol-2-yl)phenyl)pyrrolidin-2-one] gave an IC50 [1, 3] of over 501 nM and an IC50 [2] of under 100 nM.
With CC(Nc1nccc(-c2nc(-c3cccc(C4(O)CCN(C)C4=O)c3)cs2)n1)c1cc[nH]n1 (single isomer, unassigned) [Example 41] the IC50 [1, 4] was 100 to 500 nM and the IC50 [2] was under 100 nM.
Work on CN1CC[C@@](O)(c2cccc(-c3nc(-c4ccnc(NC5CC6(CC(O)C6)C5)n4)cs3)c2)C1=O (stereo partly shown) [Example 188] yielded an IC50 [1, 3] of over 501 nM and an IC50 [2] of 100 to 500 nM.
Cc1csc(Nc2nccc(-c3csc(-c4cccc([C@]5(O)CCN(C)C5=O)c4)n3)n2)n1 [Example 247] showed an IC50 [1, 3] of 100 to 500 nM and an IC50 [2] of under 100 nM.
CNC(=O)c1cc(Nc2nccc(-c3csc(-c4cccc([C@]5(O)CCN(C)C5=O)c4)n3)n2)n(C2CCCC2)n1 [Example 15, (R)-1-Cyclopentyl-5-((4-(2-(3-(3-hydroxy-1-methyl-2-oxopyrrolidin-3-yl)phenyl)thiazol-4-yl)pyrimidin-2-yl)amino)-N-methyl-1H-pyrazole-3-carboxamide] showed an IC50 [1, 3] of 100 to 500 nM and an IC50 [2] of under 100 nM.
Compound CC(C)Cn1cnc(Nc2nccc(-c3csc(-c4cccc([C@]5(O)CCN(C)C5=O)c4)n3)n2)c1 [Example 116, (R)-3-hydroxy-3-(3-(4-(2-((1-isobutyl-1H-imidazol-4-yl)amino)pyrimidin-4-yl)thiazol-2-yl)phenyl)-1-methylpyrrolidin-2-one] has an IC50 [1, 3] of over 501 nM and an IC50 [2] of under 100 nM.
In the case of CN1CCC[C@H](Nc2nccc(-c3csc(-c4cccc([C@]5(O)CCN(C)C5=O)c4)n3)n2)C1=O [Example 223], the IC50 [1, 3] is reported as over 501 nM and the IC50 [2] is reported as over 501 nM.
CN1CC[C@@](O)(c2cccc(-c3nc(-c4ccnc(NC5(c6ncccn6)CC5)n4)cs3)c2)C1=O [Example 226] was tested, and the IC50 [1, 3] was over 501 nM and the IC50 [2] was over 501 nM.
In the case of CNC(=O)c1cc(Nc2nccc(-c3csc(-c4cccc([C@]5(O)CCN(C)C5=O)c4)n3)n2)c(OC2CC2)cc1F [Example 12, (R)-4-Cyclopropoxy-2-fluoro-5-((4-(2-(3-(3-hydroxy-1-methyl-2-oxopyrrolidin-3-yl)phenyl)thiazol-4-yl)pyrimidin-2-yl)amino)-N-methylbenzamide], the IC50 [1, 3] is reported as 100 to 500 nM and the IC50 [2] is reported as under 100 nM.
Compound CN1CC[C@@](O)(c2cccc(-c3nc(-c4ccnc(Nc5nc6ccccc6n5C)n4)cs3)c2)C1=O [Example 272, (R)-3-Hydroxy-1-methyl-3-(3-(4-(2-((1-methyl-1H-benzo[d]imidazol-2-yl)amino)pyrimidin-4-yl)thiazol-2-yl)phenyl)pyrrolidin-2-one] has an IC50 [1, 3] of over 501 nM and an IC50 [2] of over 501 nM.
For CN1CCn2nc(Nc3nccc(-c4csc(-c5cccc([C@]6(O)CCN(C)C6=O)c5)n4)n3)cc2C1=O [Example 53, (R)-2-((4-(2-(3-(3-Hydroxy-1-methyl-2-oxopyrrolidin-3-yl)phenyl)thiazol-4-yl)pyrimidin-2-yl)amino)-5-methyl-6,7-dihydropyrazolo[1,5-a]pyrazin-4(5H)-one], the IC50 [1, 3] was 100 to 500 nM and the IC50 [2] was under 100 nM.
With CN1CC[C@@](O)(c2cccc(-c3nc(-c4ccnc(Nc5cn(CCF)cn5)n4)cs3)c2)C1=O [Example 117, (R)-3-(3-(4-(2-((1-(2-fluoroethyl)-1H-imidazol-4-yl)amino)pyrimidin-4-yl)thiazol-2-yl)phenyl)-3-hydroxy-1-methylpyrrolidin-2-one] the IC50 [1, 3] was 100 to 500 nM and the IC50 [2] was under 100 nM.
With C[C@H](Nc1nccc(-c2nc(-c3cc([C@]4(O)CCN(C)C4=O)ccn3)cs2)n1)c1ccnn1C [Example 290, (R)-3-Hydroxy-1-methyl-3-(2-(2-(2-(((S)-1-(1-methyl-1H-pyrazol-5-yl)ethyl)amino)pyrimidin-4-yl)thiazol-4-yl)pyridin-4-yl)pyrrolidin-2-one] the IC50 [1, 3] was 100 to 500 nM and the IC50 [2] was under 100 nM.
With Cc1ncc(Nc2nccc(-c3csc(-c4cccc([C@]5(O)CCN(C)C5=O)c4)n3)n2)s1 [Example 249] the IC50 [1, 3] was over 501 nM and the IC50 [2] was over 501 nM.
For COC[C@H](Nc1nccc(-c2nc(-c3cccc([C@]4(O)CCN(C)C4=O)c3)cs2)n1)c1ccnn1C (single isomer, unassigned) [Example 129], the IC50 [1, 3] was 100 to 500 nM and the IC50 [2] was under 100 nM.
Work on Cc1cc(CNc2nccc(-c3csc(-c4cccc([C@]5(O)CCN(C)C5=O)c4)n3)n2)ccn1 [Example 202] yielded an IC50 [1, 3] of over 501 nM and an IC50 [2] of under 100 nM.
In the case of CN1CCC(O)(c2ccc(F)c(-c3csc(-c4ccnc(Nc5ccn(C)n5)n4)n3)c2)C1=O (single isomer, unassigned) [Example 28, 3-(4-fluoro-3-(2-(2-((1-methyl-1H-pyrazol-3-yl)amino)pyrimidin-4-yl)thiazol-4-yl)phenyl)-3-hydroxy-1-methylpyrrolidin-2-one], the IC50 [1, 4] is reported as under 100 nM and the IC50 [2] is reported as under 100 nM.
CN1CC[C@@](O)(c2cccc(-c3csc(-c4ccnc(Nc5cnn6cccnc56)n4)n3)c2)C1=O [Example 85, (R)-3-hydroxy-1-methyl-3-(3-(2-(2-(pyrazolo[1,5-a]pyrimidin-3-ylamino)pyrimidin-4-yl)thiazol-4-yl)phenyl)pyrrolidin-2-one] was tested, and the IC50 [1, 3] was under 100 nM and the IC50 [2] was under 100 nM.
Cc1cnc(Nc2ccn(C)n2)nc1-c1csc(-c2cccc([C@]3(O)CCN(C)C3=O)c2)n1 [Example 16, (R)-3-Hydroxy-1-methyl-3-(3-(4-(5-methyl-2-((1-methyl-1H-pyrazol-3-yl)amino)pyrimidin-4-yl)thiazol-2-yl)phenyl)pyrrolidin-2-one] showed an IC50 [1, 3] of over 501 nM and an IC50 [2] of 100 to 500 nM.
In the case of Cc1cncnc1Nc1nccc(-c2csc(-c3cccc([C@]4(O)CCN(C)C4=O)c3)n2)n1 [Example 105, (R)-3-hydroxy-1-methyl-3-(3-(4-(2-((5-methylpyrimidin-4-yl)amino)pyrimidin-4-yl)thiazol-2-yl)phenyl)pyrrolidin-2-one], the IC50 ([1]; Homo sapiens, L-363, read-out: Assay 2 IC50) is reported as over 501 nM.
Work on Cc1cc(CNc2nccc(-c3csc(-c4cccc([C@]5(O)CCN(C)C5=O)c4)n3)n2)n[nH]1 [Example 195] yielded an IC50 [1, 3] of over 501 nM.
